Reference: paper PMC12263422, “Cryo-EM structure of the human THIK-1 K2P K^+ channel reveals a lower Y gate regulated by lipids and anesthetics” (Nature Structural & Molecular Biology, 2025)
Where “and” joins values, the source holds several entries; their conditions need not be identical. Equal values may be shown once. Read-outs that look alike come from different tables or passages of the source. One block for each molecule: values may come before it.

Target: T1, Human K2P13.1 THIK-1 (WT) (Homo sapiens, UniProt Q9HB14)
T1 construct: expressed in transfected cells; host or cells: Xenopus oocytes (mRNA injection)
T1 sequence (Q9HB14 1-408): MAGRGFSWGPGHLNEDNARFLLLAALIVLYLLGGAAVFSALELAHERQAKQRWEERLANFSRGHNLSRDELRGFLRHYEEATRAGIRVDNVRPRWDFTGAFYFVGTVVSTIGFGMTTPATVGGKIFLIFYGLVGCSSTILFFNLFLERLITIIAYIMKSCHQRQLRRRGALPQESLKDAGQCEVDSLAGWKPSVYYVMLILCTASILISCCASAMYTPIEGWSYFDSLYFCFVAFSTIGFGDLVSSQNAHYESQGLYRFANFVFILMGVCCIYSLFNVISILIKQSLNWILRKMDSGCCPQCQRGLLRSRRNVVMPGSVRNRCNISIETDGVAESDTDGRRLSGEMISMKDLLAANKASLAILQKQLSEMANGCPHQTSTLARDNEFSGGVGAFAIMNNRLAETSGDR
Test: Macroscopic inside-out excised patch recordings from Xenopus oocytes expressing WT THIK-1; compounds applied to the intracellular side
Type: cell-based
Source text: Human K2P13.1 THIK-1 (GenBank accession number: NM_022054) and human K2P12.1 THIK-2 (NM_022055.1) were used in this study. For functional expression studies, the respective K^+ channel subtype coding sequences were subcloned into the oocyte expression vector pSGEM or the dual-purpose expression vector pFAW[41] and verified by sequencing. All mutant channels were obtained by site-directed mutagenesis and verified by sequencing. To increase surface expression and macroscopic currents, measurements of THIK-2 channels used a mutated ER retention motif, (R11A R12A R14A R15A R16A; THIK-2*)[20]. Vector DNA was linearized with NheI or MluI, and mRNA was synthesized in vitro using the SP6 or T7 AmpliCap Max High Yield Message Maker Kit (Cellscript, USA) or HiScribe T7 ARCA mRNA Kit (New England Biolabs).
Two-electrode voltage–clamp (TEVC) studies were performed in Xenopus oocytes. All animal use conformed to the Guide for the Care and Use of Laboratory Animals (NIH Publication 85–23), and all experiments using Xenopus toads were approved by the local ethics panels. Oocytes were stored at 17 °C in ND96 recording solution composed of (in mM): 96 NaCl, 2 KCl, 1.8 CaCl2, 1 MgCl2, 5 HEPES (pH 7.5 adjusted with NaOH and HCl), supplemented with Na-pyruvate (275 mg L^–1), theophylline (90 mg L^–1) and gentamicin (50 mg L^–1). Oocytes were injected with 1 ng mRNA for WT or mutant channels, and were incubated for 24–48 h at 17 °C. Two-electrode voltage clamp recordings were then performed as previously described[42],[43]. For macroscopic patch–clamp measurements, oocytes were obtained as described above incubated at 17 °C in a solution containing (mM): 54 NaCl, 30 KCl, 2.4 NaHCO3, 0.82 MgSO4 ×7 H2O, 0.41 CaCl2, 0.33 Ca(NO3)2 ×4 H2O and 7.5 TRIS (pH 7.4 adjusted with NaOH and HCl) for 1–4 days before use. Excised patch recordings in inside-out configuration conditions were performed at room temperature. Patch pipettes were made from thick-walled borosilicate glass GB 200TF-8P (Science Products), had resistances of 0.2–0.5 MΩ (tip diameter, 10–25 µm) and filled with a pipette solution (in mM): 120 KCl, 10 HEPES and 3.6 CaCl2 (pH 7.4 adjusted with KOH and HCl). Intracellular bath solutions and compounds were applied to the cytoplasmic side of excised patches for the various K^+ channels through a gravity flow multi-barrel pipette system. The intracellular solution had the following composition (in mM): 120 KCl, 10 HEPES, 2 EGTA and 1 pyrophosphate (pH adjusted with KOH and HCl). Currents were recorded with an EPC10 amplifier (HEKA Electronics) and sampled at 10 kHz or higher, with filtering set to 3 kHz (–3 dB) or higher, as appropriate for sampling rate. For measurements of GPCR activation, whole-cell currents were recorded for THIK-1 in transiently transfected HEK-293 cells. Cells were stimulated by a ramp protocol between −100 and +60 mV (holding potential, −80 mV). The pipette solution was composed of (in mM): 140 KCl, 2 MgCl2, 1 CaCl2, 2.5 EGTA and 10 HEPES (pH 7.3 adjusted with KOH and HCl). The extracellular bath solution had the following composition (in mM): 135 NaCl, 5 KCl, 2 MgCl2, 2 CaCl2, 10 glucose and 10 HEPES pH (pH 7.3 adjusted with NaOH and HCl). Oxotremorine M (Oxo-M) was added to extracellular bath solution to obtain the final concentration. Single-channel currents were recorded with an Axopatch 200B amplifier through a Digidata 1440A digitizer (Molecular Devices). Data were filtered at 2 kHz and recorded at a 200-kHz sampling rate with the program Clampex (Molecular Devices). Pipette solution and bath solution for cell-attached recordings contained (in mM): 140 KCl, 2 MgCl2, 1 CaCl2 and 10 HEPES (pH 7.4 adjusted with KOH and HCl). For inside-out recordings, the bath solution contained (in mM): 140 KCl, 2 MgCl2, 1 CaCl2 and 10 HEPES (pH 7.2 adjusted with KOH and HCl). All experiments were conducted at room temperature. […]

[1] = WT (unstimulated), individual recordings
[2] = WT, PIP2, individual recordings
[3] = WT, oleoyl-CoA, individual recordings

Structure (SMILES): CCCCC[N+](CCCCC)(CCCCC)CCCCC [TPenA, tetrapentylammonium]
block of initial currents (0.5 mM TPenA, WT): ~ 80%
Normalized currents (THIK-1 WT (unstimulated), 0.01 µM TPenA): 1.00
Normalized currents (THIK-1 WT (unstimulated), 0.1 µM TPenA): 0.97
Normalized currents (THIK-1 WT (unstimulated), 1 µM TPenA): 0.94
Normalized currents (THIK-1 WT (unstimulated), 10 µM TPenA): 0.88
Normalized currents (THIK-1 WT (unstimulated), 15.6 µM TPenA): 0.89
Normalized currents (THIK-1 WT (unstimulated), 62.5 µM TPenA): 0.75
Normalized currents (THIK-1 WT (unstimulated), 100 µM TPenA): 0.71
Normalized currents (THIK-1 WT (unstimulated), 250 µM TPenA): 0.49
Normalized currents (THIK-1 WT (unstimulated), 1000 µM TPenA): 0.21
Normalized currents (THIK-1 WT (unstimulated), 4000 µM TPenA): 0.09
Normalized currents (THIK-1 WT (unstimulated), 5000 µM TPenA): 0.09
Normalized currents (TPenA 0.01 µM, THIK-1 WT (oleoyl-CoA, 5 µM)): 1
Normalized currents (TPenA 0.01 µM, THIK-1 WT (unstimulated)): 1.00
Normalized currents (TPenA 0.1 µM, THIK-1 WT (PIP2)): 1
Normalized currents (TPenA 0.1 µM, THIK-1 WT (oleoyl-CoA, 5 µM)): 0.87
Normalized currents (TPenA 0.1 µM, THIK-1 WT (unstimulated)): 0.97
Normalized currents (TPenA 1 µM, THIK-1 WT (PIP2)): 0.86
Normalized currents (TPenA 1 µM, THIK-1 WT (oleoyl-CoA, 5 µM)): 0.81
Normalized currents (TPenA 1 µM, THIK-1 WT (unstimulated)): 0.94
Normalized currents (TPenA 4 µM, THIK-1 WT (PIP2)): 0.54
Normalized currents (TPenA 4 µM, THIK-1 WT (oleoyl-CoA, 5 µM)): 0.48
Normalized currents (TPenA 10 µM, THIK-1 WT (unstimulated)): 0.88
Normalized currents (TPenA 15.6 µM, THIK-1 WT (PIP2)): 0.26
Normalized currents (TPenA 15.6 µM, THIK-1 WT (oleoyl-CoA, 5 µM)): 0.22
Normalized currents (TPenA 15.6 µM, THIK-1 WT (unstimulated)): 0.89
Normalized currents (TPenA 62.5 µM, THIK-1 WT (PIP2)): 0.1
Normalized currents (TPenA 62.5 µM, THIK-1 WT (oleoyl-CoA, 5 µM)): 0.09
Normalized currents (TPenA 62.5 µM, THIK-1 WT (unstimulated)): 0.75
Normalized currents (TPenA 100 µM, THIK-1 WT (unstimulated)): 0.71
Normalized currents (TPenA 250 µM, THIK-1 WT (PIP2)): 0.03
Normalized currents (TPenA 250 µM, THIK-1 WT (oleoyl-CoA, 5 µM)): 0.04
Normalized currents (TPenA 250 µM, THIK-1 WT (unstimulated)): 0.49
Normalized currents (TPenA 1000 µM, THIK-1 WT (PIP2)): 0.02
Normalized currents (TPenA 1000 µM, THIK-1 WT (oleoyl-CoA, 5 µM)): 0.02
Normalized currents (TPenA 1000 µM, THIK-1 WT (unstimulated)): 0.21
Normalized currents (TPenA 4000 µM, THIK-1 WT (PIP2)): 0.01
Normalized currents (TPenA 4000 µM, THIK-1 WT (oleoyl-CoA, 5 µM)): 0.02
Normalized currents (TPenA 4000 µM, THIK-1 WT (unstimulated)): 0.09
Normalized currents (TPenA 5000 µM, THIK-1 WT (unstimulated)): 0.09
IC50 (TPenA IC50, THIK-1 WT, individual recordings): 228 µM and 219 µM and 204 µM (2×) and 231 µM and 268 µM and 259 µM and 120 µM and 223 µM and 194 µM and 240 µM and 308 µM
IC50 (TPenA IC50, THIK-1 WT, mean): 225 µM
IC50 (TPenA IC50, intracellular application to excised patches, WT unstimulated): 225 ± 13 µM
τ of 1 mM TPenA block [1]: 14.000 s and 10.890 s and 8.250 s and 24.220 s and 9.660 s and 10.730 s and 11.070 s and 13.110 s and 12.070 s and 8.080 s and 8.510 s
τ of 1 mM TPenA release [1]: 76.730 s and 96.620 s and 52.570 s and 76.880 s and 103.780 s and 38.820 s and 101.050 s and 68.790 s and 74.350 s and 174.000 s and 73.800 s
τ of 1 mM TPenA block (WT (unstimulated), mean): 11.87 s
τ of 1 mM TPenA release (WT (unstimulated), mean): 85.22 s
τblock (kinetics of TPenA block) (WT unstimulated): 12 ± 1 s
τrelease (kinetics of TPenA release) (WT unstimulated): 85 ± 11 s
τ of 1 mM TPenA block [2]: 0.324 s and 0.375 s and 0.323 s and 0.215 s and 0.293 s
τ of 1 mM TPenA release [2]: 29.360 s and 29.550 s and 28.630 s and 28.550 s and 38.470 s and 25.420 s
τblock (WT, PIP2 activated): 0.31 ± 0.02 s
τrelease (WT, PIP2 activated): 30 ± 2 s
τ of 1 mM TPenA block (WT, PIP2 activated, mean): 0.31 s
τ of 1 mM TPenA release (WT, PIP2 activated, mean): 30.00 s
τblock (WT, oleoyl-CoA activated): 0.5 ± 0.1 s
τrelease (WT, oleoyl-CoA activated): 11 ± 1 s
τ of 1 mM TPenA block (WT, oleoyl-CoA activated, mean): 0.53 s
τ of 1 mM TPenA release (WT, oleoyl-CoA activated, mean): 10.85 s
τ of 1 mM TPenA block [3]: 0.330 s and 0.560 s and 0.270 s and 0.340 s and 0.440 s and 0.930 s and 0.380 s and 0.720 s and 0.750 s and 0.360 s
τ of 1 mM TPenA release [3]: 7.190 s and 6.440 s and 12.640 s and 12.180 s and 15.140 s and 8.860 s and 13.480 s
inhibition at 15.6 µM (read-out: inhibition with 15.6 µM TPenA, WT channel in PIP2): 74 ± 1%
inhibition at 15.6 µM (read-out: inhibition with 15.6 µM TPenA, WT channel in oleoyl-CoA): 78 ± 1%
inhibition at 15.6 µM (read-out: inhibition with 15.6 µM TPenA, WT channel, unstimulated): 11 ± 1%

inhibition at 240 µM (0.24 mM Sevoflurane, WT, mean): 48.5%
inhibition at 23 µM (THIK-1 WT, 0.023 mM sevoflurane): 14.1%
inhibition at 47 µM (THIK-1 WT, 0.047 mM sevoflurane): 21.7%
inhibition at 468 µM (THIK-1 WT, 0.468 mM sevoflurane): 57.5%
inhibition at 2340 µM (THIK-1 WT, 2.34 mM sevoflurane): 79.5%
Structure (SMILES): FCOC(C(F)(F)F)C(F)(F)F [Sevoflurane, sevoflurane]
Inhibition (%) (0.24 mM Sevoflurane, WT, individual recordings): 52.54% and 40.05% and 49.45% and 28.56% and 58.12% and 60.68% and 50.30%
